Usually IC50 stands for the midpoint of a concentration-inhibition curve.

We go through nine compounds from paper PMC10585773, “Green synthesis of highly functionalized heterocyclic bearing pyrazole moiety for cancer-targeted chemo/radioisotope therapy” (BMC Chemistry, 2023).

The subject of one assay is HepG2. As to the kind of experiment: MTT assay, in-vitro cytotoxicity against HepG2. Format: cell-based. Particulars: Homo sapiens, HepG2 hepatocellular carcinoma cells, scale: 1–10 very strong, 11–20 strong, 21–50 moderate, 51–100 weak, above 100 non-cytotoxic. The source says: (§1) Hepatocellular carcinoma (HepG2), and colorectal carcinoma (HCT-116). The cell lines were obtained from ATCC via Holding company for biological products and vaccines (VACSERA), Cairo, Egypt.
(§2) The reagents RPMI-1640 medium, MTT and DMSO (sigma co., St. Louis, USA), Fetal Bovine serum (GIBCO, UK). 5-Fluorouracil was used as a standard anticancer drug for comparison.
(§3) HepG2 and (HCT-116 were used to determine the inhibitory effects of compounds on cell growth using the MTT assay. The relative cell viability in percentage was calculated as (A570 of treated samples/A570 of untreated sample) X 100.
For orientation: Formazan colour is commonly taken as a measure of viable cells.

The next assay concerns HCT-116. Description: MTT assay, in-vitro cytotoxicity against HCT-116. The format is cell-based. Conditions: Homo sapiens, HCT-116 colorectal carcinoma cells, scale: 1–10 very strong, 11–20 strong, 21–50 moderate, 51–100 weak, above 100 non-cytotoxic.
Excerpt: as §1, §2, §3

As to `Nc1nc(-c2c(-c3ccccc3)nn(-c3ccccc3)c2N)nc2c1c(-c1ccccc1)nn2-c1ccccc1` [Compound 9, 6-(5-Amino-1,3-diphenyl-1H-pyrazol-4-yl)-1,3-diphenyl-1H-pyrazolo[3,4-d]pyrimidin-4-amine], the half-inhibitory concentration (IC50) with HepG2 came out at 55.7 ± 2.7 µM; in the assay with HCT-116, 33.6 ± 2.1 µM.

Regarding `Nc1c(C(=O)O)[nH]c2c1c(-c1ccccc1)nn2-c1ccccc1` [Compound 4, 4-Amino-1,3-diphenyl-1,6-dihydropyrrolo[2,3-c]pyrazole-5-carboxylic acid], the concentration for half-maximal inhibition (IC50) with HepG2 amounted to 14.5 ± 2.8 µM; in the assay on HCT-116, 15.2 ± 2.4 µM.

With `CCOc1nc(-c2ccccc2)nc2c1c(-c1ccccc1)nn2-c1ccccc1` [Compound 8, 4-Ethoxy-1,3,6-triphenyl-1H-pyrazolo[3,4-d]pyrimidine], the concentration for half-maximal inhibition (IC50) with HepG2 came to 12.1 ± 5.1 µM; in the assay on HCT-116, 17.4 ± 3.9 µM.

As to `Nc1nc(=O)[nH]c2c1c(-c1ccccc1)nn2-c1ccccc1` [Compound 6, 4-Amino-1,3-diphenyl-1,7-dihydro-6H-pyrazolo[3,4-d]pyrimidin-6-one], the IC50 amounted to 91.4 ± 4.2 µM in the assay with HepG2 and 51 ± 2.7 µM in the assay on HCT-116.

In the case of `Nc1nc(=S)[nH]c2c1c(-c1ccccc1)nn2-c1ccccc1` [Compound 7, 4-Amino-1,3-diphenyl-1,7-dihydro-6H-pyrazolo[3,4-d]pyrimidine-6-thione], the results for the IC50 in the assay with HepG2 and in the assay on HCT-116 were 10.2 ± 2.1 µM and 13.1 ± 2.3 µM, respectively.

As to `N#Cc1c(N)nc2c(c(-c3ccccc3)nn2-c2ccccc2)c1N` [Compound 2, 4,6-Diamino-1,3-diphenyl-1H-pyrazolo[3,4-b]pyridine-5-carbonitrile], the IC50 was determined as 9.2 ± 2.8 µM in the assay on HepG2 and 7.7 ± 1.8 µM in the assay on HCT-116.

Regarding `NC(=O)c1c(N)nc2c(c(-c3ccccc3)nn2-c2ccccc2)c1N` [Compound 3, 4,6-Diamino-1,3-diphenyl-1H-pyrazolo[3,4-b]pyridine-5-carboxamide], the values for the IC50 in the assay with HepG2 and in the assay on HCT-116 were 22.8 ± 2.1 µM and 29.4 ± 2.3 µM, respectively.

For the compound `Nc1n[nH]c2c1c(-c1ccccc1)nn2-c1ccccc1` [Compound 5, 4,6-Diphenyl-1,6-dihydropyrazolo[3,4-c]pyrazol-3-amine], the IC50 in the assay with HepG2 amounted to 8.8 ± 5.1 µM; in the assay on HCT-116 it was 13.8 ± 3.9 µM.

For the compound `O=c1[nH]cc(F)c(=O)[nH]1` [Compound 5-Fu, 5-Fluorouracil, reference compound], the IC50 in the assay with HepG2 was 7.86 ± 0.5 µM; with HCT-116, 5.35 ± 0.3 µM.
